Laboratory results published in patent publication US10251395B2, “Substituted furano-/thienocycloalkylamino-2-pyrimidine derivatives and use thereof for controlling undesired plant growth” (Bayer CropScience Aktiengesellschaft, priority 2015, dated 2019).

How the values were obtained:
Lolium multiflorum = test: Pre-emergence herbicidal effect; format: in vivo; details: Dosage 320 g/ha, scored visually after 3 weeks
Procedure, shortened: (§1)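 Using soil-surface application before emergence, the compound was delivered in a water volume equating to 600 to 800 L/ha. Plants grew in a greenhouse for 3 weeks; activity was then rated visually in percent against untreated plants, with 100% for plants killed.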

Matricaria inodora [1] = test: Pre-emergence herbicidal effect; format: in vivo; details: scored visually after 3 weeks
Procedure, shortened: as §1

Amaranthus retroflexus [2] = test: Pre-emergence herbicidal effect; format: in vivo; details: scored visually after 3 weeks
Procedure, shortened: as §1

Viola tricolor [3] = test: Pre-emergence herbicidal effect; format: in vivo; details: scored visually after 3 weeks
Procedure, shortened: as §1

Setaria viridis [4] = test: Pre-emergence herbicidal effect; format: in vivo; details: scored visually after 3 weeks
Procedure, shortened: as §1

Echinochloa crus-galli = test: Pre-emergence herbicidal effect; format: in vivo; details: Dosage 320 g/ha, scored visually after 3 weeks
Procedure, shortened: as §1

Stellaria media [5] = test: Pre-emergence herbicidal effect; format: in vivo; details: scored visually after 3 weeks
Procedure, shortened: as §1

Veronica persica [6] = test: Pre-emergence herbicidal effect; format: in vivo; details: scored visually after 3 weeks
Procedure, shortened: as §1

logP (HCOOH) = format: physicochemical; details: for chromatographic logP: HCOOH (formic acid)
Text: Table 2 (physicochemical characterization of selected synthesis examples)

Matricaria inodora [7] = test: Post-emergence herbicidal effect; format: in vivo; details: assessed visually after about 3 weeks vs untreated controls
Procedure, shortened: (§2)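 Percent herbicidal action was judged by eye roughly 3 weeks post-application, 0% matching control plants and 100% meaning plant death. Seedlings, greenhouse-grown in sandy loam, received the spray at one leaf.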

Amaranthus retroflexus [8] = test: Post-emergence herbicidal effect; format: in vivo; details: assessed visually after about 3 weeks vs untreated controls
Procedure, shortened: as §2

Viola tricolor [9] = test: Post-emergence herbicidal effect; format: in vivo; details: assessed visually after about 3 weeks vs untreated controls
Procedure, shortened: as §2

Abutilon theophrasti = test: Post-emergence herbicidal effect; format: in vivo; details: assessed visually after about 3 weeks vs untreated controls
Procedure, shortened: as §2

Setaria viridis [10] = test: Post-emergence herbicidal effect; format: in vivo; details: 320 g/ha, assessed visually after about 3 weeks vs untreated controls
Procedure, shortened: as §2

Stellaria media [11] = test: Post-emergence herbicidal effect; format: in vivo; details: assessed visually after about 3 weeks vs untreated controls
Procedure, shortened: as §2

Veronica persica [12] = test: Post-emergence herbicidal effect; format: in vivo; details: assessed visually after about 3 weeks vs untreated controls
Procedure, shortened: as §2

Polygonum convolvulus = test: Pre-emergence herbicidal effect; format: in vivo; details: scored visually after 3 weeks
Procedure, shortened: as §1

Alopecurus myosuroides = test: Pre-emergence herbicidal effect; format: in vivo; details: scored visually after 3 weeks
Procedure, shortened: as §1

Ipomoea purpurea = test: Post-emergence herbicidal effect; format: in vivo; details: 320 g/ha, assessed visually after about 3 weeks vs untreated controls
Procedure, shortened: as §2

Row | SMILES | MATIN pre-emergence efficacy (herbicidal activity) (Matricaria inodora [1]; Dosage 320 g/ha) [%] | AMARE pre-emergence efficacy (herbicidal activity) (Amaranthus retroflexus [2]; Dosage 80 g/ha) [%] | AMARE pre-emergence efficacy (herbicidal activity) (Amaranthus retroflexus [2]; Dosage 320 g/ha) [%] | VIOTR pre-emergence efficacy (herbicidal activity) (Viola tricolor [3]; Dosage 320 g/ha) [%] | SETVI pre-emergence efficacy (herbicidal activity) (Setaria viridis [4]; Dosage 320 g/ha) [%] | ECHCG pre-emergence efficacy (herbicidal activity) (Echinochloa crus-galli) [%] | STEME pre-emergence efficacy (herbicidal activity) (Stellaria media [5]; Dosage 80 g/ha) [%] | STEME pre-emergence efficacy (herbicidal activity) (Stellaria media [5]; Dosage 320 g/ha) [%] | VERPE pre-emergence efficacy (herbicidal activity) (Veronica persica [6]; Dosage 80 g/ha) [%] | VERPE pre-emergence efficacy (herbicidal activity) (Veronica persica [6]; Dosage 320 g/ha) [%] | logP (HCOOH) (logP (HCOOH)) | post-emergence efficacy AMARE (Amaranthus retroflexus [8]; 320 g/ha) [%] | post-emergence efficacy VIOTR (Viola tricolor [9]; 80 g/ha) [%] | post-emergence efficacy VIOTR (Viola tricolor [9]; 320 g/ha) [%] | post-emergence efficacy VERPE (Veronica persica [12]; 320 g/ha) [%] | MATIN pre-emergence efficacy (herbicidal activity) (Matricaria inodora [1]; Dosage 80 g/ha) [%] | POLCO pre-emergence efficacy (herbicidal activity) (Polygonum convolvulus; Dosage 320 g/ha) [%] | VIOTR pre-emergence efficacy (herbicidal activity) (Viola tricolor [3]; Dosage 80 g/ha) [%] | ALOMY pre-emergence efficacy (herbicidal activity) (Alopecurus myosuroides; Dosage 320 g/ha) [%] | other results
1 | CNC(=O)c1cnc(NC2CCCc3sc(C)cc32)nc1N (racemic) [compound 266] | 100 | 100 | 100 | 100 | 100 | 100 | 100 | 100 | 100 | 100 | logP (HCOOH): 1.17; 1H NMR (CDCl3, 400 MHZ, δ in ppm): 1.90 (m, 3H, 3H of | 100 | 80 | 90 | 90 | – | – | – | – | LOLMU pre-emergence efficacy (herbicidal activity) (Lolium multiflorum): 60%; SETVI pre-emergence efficacy (herbicidal activity) (Setaria viridis [4]; Dosage 80 g/ha): 100%; post-emergence efficacy MATIN (Matricaria inodora [7]; 80 g/ha): 60%; post-emergence efficacy MATIN (Matricaria inodora [7]; 320 g/ha): 60%; post-emergence efficacy AMARE (Amaranthus retroflexus [8]; 80 g/ha): 90%; post-emergence efficacy ABUTH (Abutilon theophrasti; 80 g/ha): 80%; post-emergence efficacy ABUTH (Abutilon theophrasti; 320 g/ha): 80%; post-emergence efficacy SETVI (Setaria viridis [10]): 60%; post-emergence efficacy STEME (Stellaria media [11]; 80 g/ha): 80%; post-emergence efficacy STEME (Stellaria media [11]; 320 g/ha): 100%; post-emergence efficacy VERPE (Veronica persica [12]; 80 g/ha): 90%
2 | Cc1cc2c(s1)CCCC2Nc1ncc(C(=O)C(F)(F)F)c(N)n1 (racemic) [compound 72] | 100 | 80 | 100 | 100 | 100 | 80 | – | 100 | 100 | 100 | oily; logP (HCOOH): 3.90; 1H NMR (CDCl3, 400 MHZ, δ in ppm): 1.85 (m, 3H, 3H of | – | 80 | 100 | 80 | 100 | 100 | 100 | 90 | ALOMY pre-emergence efficacy (herbicidal activity) (Alopecurus myosuroides; Dosage 80 g/ha): 80%; post-emergence efficacy VERPE (Veronica persica [12]; 80 g/ha): 80%; post-emergence efficacy PHBPU (Ipomoea purpurea): 80%
3 | Cc1cc2c(s1)CCCC2Nc1nc(N)c([S+](C)[O-])c(C(F)(F)F)n1 (racemic) [compound 35] | 90 | – | 90 | 100 | – | – | – | 100 | – | 90 | oily; logP (HCOOH): 3.44; 1H NMR (CDCl3, 400 MHZ, δ in ppm): 1.85 (m, 3H, 3H of | 80 | – | 90 | – | – | 90 | – | – | –
4 | Cc1cc2c(s1)CCCC2Nc1ncc(F)c(N)n1 (stereo not drawn) [compound 12, 5-Fluoro-N2-(2-methyl-4,5,6,7-tetrahydro-1-benzothiophen-4-yl)pyrimidine-2,4-diamine] | 90 | – | 90 | 100 | 90 | – | – | 100 | – | 100 | – | – | – | – | – | – | 80 | – | 90 | chromatographic logP (logP (HCOOH)): 1.07
5 | Nc1nc(NC2CCCc3sccc32)ncc1S(=O)(=O)C1CC1 (racemic) [compound 36] | 100 | 100 | 100 | 100 | – | – | 100 | 100 | 90 | 100 | solid; m.p.: 243.3° C.; logP (HCOOH): 2.12; 1H NMR (CDCl3, 400 MHZ, δ in ppm): | – | 100 | 100 | 80 | 100 | – | 100 | – | post-emergence efficacy STEME (Stellaria media [11]; 320 g/ha): 80%
6 | CS(=O)(=O)c1cnc(NC2CCc3ccsc32)nc1N (stereo not drawn) [compound 33, N2-(5,6-Dihydro-4H-cyclopenta[b]thiophen-6-yl)-5-methylsulfonylpyrimidine-2,4-diamine] | 100 | 100 | 100 | 100 | – | 100 | 100 | 100 | 80 | 100 | – | – | 80 | 90 | – | 100 | 100 | 100 | – | LOLMU pre-emergence efficacy (herbicidal activity) (Lolium multiflorum): 100%; chromatographic logP (logP (HCOOH)): 1.57; post-emergence efficacy MATIN (Matricaria inodora [7]; 320 g/ha): 90%
7 | Cc1cc2c(s1)CCC2Nc1ncc(S(=O)(=O)C(C)C)c(N)n1 (racemic) [compound 63] | 100 | – | – | 100 | 100 | – | 100 | 100 | – | – | solid; logP (HCOOH): 2.40; 1H NMR (CDCl3, 400 MHZ, δ in ppm): 1.35 (d, 6H, 6H | 40 | 90 | 90 | – | 100 | 100 | 100 | 100 | POLCO pre-emergence efficacy (herbicidal activity) (Polygonum convolvulus; Dosage 80 g/ha): 20%; post-emergence efficacy AMARE (Amaranthus retroflexus [8]; 80 g/ha): 10%
